The nature of data set [1]: Stability in human liver microsomes assessed as metabolic turnover number at 10 uM after 15 mins by LC-MS/UV analysis. In kind it is ADME, microsome. The conditions noted are these: read-out: Stability. (Microsomes from liver hold many membrane-bound enzymes, among them those of drug oxidation.)
Data set [2] has as its target T1, Transient receptor potential cation channel subfamily A member 1 (Homo sapiens, UniProt O75762). Briefly: Antagonist activity at full length human TRPA1 at holding potential of 15 mV measured after 1 min by PatchXpress electrophysiology assay.
The target in data set [3] is T1, Transient receptor potential cation channel subfamily A member 1. Briefly: Antagonist activity at full length human TRPA1 expressed in 293-T-REx cells by FLIPR assay.
Data set [4] is described as follows: Ratio of permeability from basolateral to apical side over apical to basolateral side in RRCK cells expressing MDR1. In kind it is ADME, cell-based, Canis lupus familiaris. The conditions noted are these: dog, mdckii-le.
Data set [5] is described as follows: Lipophilicity, log D of the compound. The format is physicochemical. The conditions noted are these: octanol/water.
Data set [6] in a line: Passive permeability of the compound in RRCK cells. The format is ADME, cell-based, Canis lupus familiaris, MDCKII-LE. The conditions noted are these: dog, MDCK; read-out: permeability.
A short description of data set [7]: Drug uptake in Sprague-Dawley rat skin dermal layer at 0.68 mg applied topically measured after 24 hrs. The format is ADME, tissue-based, Dermis. The conditions noted are these: topical or ocular, read-out: Drug uptake.
Data set [8] in a line: Drug uptake in Sprague-Dawley rat skin epidermal layer at 0.68 mg applied topically measured after 24 hrs. The format is ADME, tissue-based, Skin epidermis. The note with it: topical or ocular, read-out: Drug uptake.
For data set [9], the target named is Transient receptor potential cation channel subfamily A member 1 (Rattus norvegicus, UniProt Q6RI86). Briefly: Antagonist activity at rat TRPA1 by electrophysiology assay.
Sequence of Transient receptor potential cation channel subfamily A member 1 (Rattus norvegicus, UniProt Q6RI86) (Q6RI86 whole entry): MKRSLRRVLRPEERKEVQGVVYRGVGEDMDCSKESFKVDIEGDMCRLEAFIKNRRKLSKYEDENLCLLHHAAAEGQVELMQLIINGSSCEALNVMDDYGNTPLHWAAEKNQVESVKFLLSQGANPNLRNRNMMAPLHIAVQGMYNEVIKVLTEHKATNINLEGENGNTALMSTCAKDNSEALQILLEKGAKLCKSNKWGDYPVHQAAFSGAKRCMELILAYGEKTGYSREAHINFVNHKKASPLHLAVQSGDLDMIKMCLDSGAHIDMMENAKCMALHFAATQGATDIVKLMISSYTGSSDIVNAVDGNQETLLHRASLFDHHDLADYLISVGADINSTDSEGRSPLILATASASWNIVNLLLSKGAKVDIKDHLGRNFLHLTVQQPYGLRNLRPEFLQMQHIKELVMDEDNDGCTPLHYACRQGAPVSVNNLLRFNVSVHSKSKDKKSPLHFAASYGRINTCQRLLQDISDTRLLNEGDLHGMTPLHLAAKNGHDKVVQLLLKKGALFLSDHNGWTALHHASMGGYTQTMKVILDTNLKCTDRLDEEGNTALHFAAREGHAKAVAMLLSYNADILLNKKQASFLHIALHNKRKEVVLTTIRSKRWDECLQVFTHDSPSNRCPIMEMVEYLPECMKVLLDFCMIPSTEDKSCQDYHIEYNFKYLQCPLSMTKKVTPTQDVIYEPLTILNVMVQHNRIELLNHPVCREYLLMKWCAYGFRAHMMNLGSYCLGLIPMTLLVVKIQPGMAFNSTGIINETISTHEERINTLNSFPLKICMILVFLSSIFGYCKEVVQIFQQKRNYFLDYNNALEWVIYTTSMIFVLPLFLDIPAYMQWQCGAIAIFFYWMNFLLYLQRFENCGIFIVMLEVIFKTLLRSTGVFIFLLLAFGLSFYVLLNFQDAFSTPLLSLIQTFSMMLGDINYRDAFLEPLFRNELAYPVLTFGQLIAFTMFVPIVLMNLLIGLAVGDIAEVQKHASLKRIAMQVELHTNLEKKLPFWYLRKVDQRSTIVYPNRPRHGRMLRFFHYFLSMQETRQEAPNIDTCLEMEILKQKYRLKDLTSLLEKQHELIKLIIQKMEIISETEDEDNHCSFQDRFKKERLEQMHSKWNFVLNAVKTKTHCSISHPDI
Data set [10] concerns Rattus norvegicus. Briefly: Suppression of cinnamaldehyde-induced flare response in Sprague-Dawley rat skin at 50 to 100 mg/kg administered topically preincubated for 30 to 90 mins measured by recording blood flow for 30 mins by laser Doppler sonography method. In kind it is functional, organism-based.
Data set [11] has as its system Rattus norvegicus. Nature of the data set: Suppression of cinnamaldehyde-induced flare response in Sprague-Dawley rat skin at 50 to 100 mg/kg administered topically measured after 30 to 90 mins by recording blood flow for 30 mins by laser Doppler sonography method. In kind it is functional, organism-based.

pIC50: −log10 of the molar value. Activity calls are given as the source filed them. No cut-off for these calls is given here.

T1 sequence (O75762 whole entry): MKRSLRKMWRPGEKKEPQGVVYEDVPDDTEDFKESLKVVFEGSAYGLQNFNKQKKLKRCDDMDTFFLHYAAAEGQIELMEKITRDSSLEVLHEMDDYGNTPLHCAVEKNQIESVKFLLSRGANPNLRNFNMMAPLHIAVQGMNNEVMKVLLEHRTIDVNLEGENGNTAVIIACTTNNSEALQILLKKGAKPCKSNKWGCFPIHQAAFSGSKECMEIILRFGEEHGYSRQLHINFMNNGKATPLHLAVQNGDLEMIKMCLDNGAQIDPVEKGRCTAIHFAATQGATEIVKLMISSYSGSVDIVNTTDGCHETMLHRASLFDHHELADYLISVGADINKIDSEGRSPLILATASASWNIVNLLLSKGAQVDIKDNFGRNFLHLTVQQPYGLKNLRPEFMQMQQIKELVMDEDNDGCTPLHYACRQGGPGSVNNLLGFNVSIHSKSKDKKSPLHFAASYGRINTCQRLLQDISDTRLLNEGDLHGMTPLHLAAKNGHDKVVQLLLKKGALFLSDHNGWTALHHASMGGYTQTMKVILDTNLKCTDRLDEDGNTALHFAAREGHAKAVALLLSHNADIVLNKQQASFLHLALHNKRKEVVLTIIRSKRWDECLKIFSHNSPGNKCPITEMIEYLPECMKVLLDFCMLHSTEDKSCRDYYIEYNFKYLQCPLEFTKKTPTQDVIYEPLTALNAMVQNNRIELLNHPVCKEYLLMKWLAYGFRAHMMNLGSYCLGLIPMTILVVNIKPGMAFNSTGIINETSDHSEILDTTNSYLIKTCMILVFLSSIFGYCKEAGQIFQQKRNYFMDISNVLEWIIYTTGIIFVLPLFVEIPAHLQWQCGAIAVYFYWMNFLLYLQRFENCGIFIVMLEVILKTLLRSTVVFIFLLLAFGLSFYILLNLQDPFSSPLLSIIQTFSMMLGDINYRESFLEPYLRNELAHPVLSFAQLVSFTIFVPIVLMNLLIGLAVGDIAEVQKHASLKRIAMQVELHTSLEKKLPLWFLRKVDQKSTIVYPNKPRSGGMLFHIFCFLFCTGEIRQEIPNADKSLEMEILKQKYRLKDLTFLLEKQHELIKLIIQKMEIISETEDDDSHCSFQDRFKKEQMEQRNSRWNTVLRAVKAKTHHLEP

Regarding `O=C(NC[C@H](Cc1ccccc1)N1CCC(O)(C(F)(F)F)CC1)C1(c2ccc(Cl)cc2)CC1`, the microsomal CLint at 10 µM in data set [1] was above 320 µL/min/mg. In addition, in data set [2], the pIC50 (as a rule, the IC50 on a negative log10 scale, so that one unit is a factor of ten) is 6.32.

Take `CCCC(C)(C)C(=O)NC[C@@H](Cc1ccccc1)N1CCC(O)(C(F)(F)F)CC1`: the pIC50 in [3] was 7.15.

`O=C(NC[C@@H](Cc1ccccc1)N1CCC(O)(C(F)(F)F)CC1)C1(c2ccc(Cl)cc2)CC1`: in [1], the microsomal CLint at 10 µM is above 320 µL/min/mg. In data set [2], this compound showed a pIC50 of 7.28.

With `O=C(NC[C@H](Cc1ccccc1)N1CCC(O)(C(F)(F)F)CC1)C1(c2ccc(Cl)cc2)CCCC1`, the Ratio in [4] is 1. Further, the logD (as a rule, lipophilicity at a set pH, counting ionised and neutral species) in data set [5] was found to be 4.7. In addition, in data set [6], the Papp was 1 ×10⁻⁶ cm/s. Also, the microsomal CLint at 10 µM in data set [1] was above 320 µL/min/mg. In [2], the pIC50 is 5.72.

On to `O[C@]12CCCC[C@@H]1CCC[C@H]2Nc1ccc(F)cc1`, for which the concentration at 24 h worked out at 232000 ng/g in data set [7] and 86000 ng/g in data set [8]. The pIC50 in data set [2] is 8.00; in data set [9], 8.10.

In data set [3], `CCCC(C)(C)C(=O)NC[C@H](Cc1ccccc1)N1CCC(O)(C(F)(F)F)CC1` had a pIC50 of 5.77.

For the compound `O=C(NCC(Cc1ccccc1)N1CCC(O)(C(F)(F)F)CC1)C1(c2ccc(Cl)cc2)CCCC1` (racemic), the result in the data set with Rattus norvegicus [10] and in the data set with Rattus norvegicus [11] was Active. In data set [6], the Papp was 1 ×10⁻⁶ cm/s. The microsomal CLint at 10 µM in data set [1] is above 320 µL/min/mg. Also, the pIC50 in data set [2] was 7.77; in data set [3], 6.43.

On to `O=C(NCC(Cc1ccccc1)N1CCC(O)(C(F)(F)F)CC1)C1(c2ccc(Cl)cc2)CC1` (racemic), for which the Papp in data set [6] was 2 ×10⁻⁶ cm/s. Further, the microsomal CLint at 10 µM in [1] was above 320 µL/min/mg. This compound also gave a pIC50 in [2] of 7.14.

Turning to `CC1(C(=O)NCC(Cc2ccccc2)N2CCC(O)(C(F)(F)F)CC2)CCCCC1` (racemic), the microsomal CLint at 10 µM in [1] is above 320 µL/min/mg. For the same compound, the pIC50 in [2] was 6.07.

As to `CN1CCC(CC(CNC(=O)C2(c3ccc(Cl)cc3)CCCC2)N2CCC(O)(C(F)(F)F)CC2)CC1` (racemic), the Papp in data set [6] is 1 ×10⁻⁶ cm/s. Moreover, the microsomal CLint at 10 µM in [1] turned out to be 42 µL/min/mg. For the same compound, in data set [2], the pIC50 is 4.57.

Regarding `CC(C)(C)[C@H]1CC[C@H](C(=O)NCC(Cc2ccccc2)N2CCC(O)(C(F)(F)F)CC2)CC1` (mixture of isomers), in [1], the microsomal CLint at 10 µM is above 320 µL/min/mg. Besides, in data set [2], the pIC50 was 7.00.

Take `O=C(NCC(Cc1ccc(F)cc1)N1C2CCC1CC(O)(C(F)(F)F)C2)C1(c2ccc(F)cc2)CCCC1` (racemic): the microsomal CLint at 10 µM in data set [1] was above 320 µL/min/mg. The pIC50 in data set [2] was 6.08.

Consider `Cc1nc(C(=O)NCC(Cc2ccccc2)N2CCC(O)(C(F)(F)F)CC2)c(C(F)(F)F)o1` (racemic), for which, in data set [1], the microsomal CLint at 10 µM turned out to be 146 µL/min/mg. Moreover, the pIC50 in [3] is below 5.00.

`O=C(NCC(Cc1ccc(F)cc1)N1CC2CCC1C2)C1(c2ccc(F)cc2)CC1` (racemic): the microsomal CLint at 10 µM in [1] was above 320 µL/min/mg. Besides, in data set [3], the pIC50 is below 5.00.

With `CN(CC(Cc1ccccc1)N1CCC(O)(C(F)(F)F)CC1)C(=O)C1(c2ccc(Cl)cc2)CCCC1` (racemic), in data set [1], the microsomal CLint at 10 µM is above 320 µL/min/mg. The pIC50 in data set [2] was below 6.00.

For `O=C(NCC(Cc1ccccc1)N1CCC(O)(C(F)(F)F)CC1)c1cc(C(F)(F)F)ccn1` (racemic), the Papp in data set [6] is 8 ×10⁻⁶ cm/s. Besides, the microsomal CLint at 10 µM in [1] is 285 µL/min/mg. The same compound gave a pIC50 in data set [2] of 7.08.

With `CC(C)c1csc(C(=O)NCC(Cc2ccccc2)N2CCC(O)(C(F)(F)F)CC2)n1` (racemic), in data set [1], the microsomal CLint at 10 µM was above 320 µL/min/mg. The compound also gave a pIC50 in [2] of 6.80.

Regarding `O=C1CCC2(CCN(C(CNC(=O)C3(c4ccc(F)cc4)CC3)Cc3ccc(F)cc3)CC2)N1` (racemic), the microsomal CLint at 10 µM in data set [1] is 168 µL/min/mg. Further, the pIC50 in data set [3] is below 5.00.

As for `O=C(NCC(Cc1ccc(F)cc1)N1CCC2(C1)CC2(F)F)C1(c2ccc(F)cc2)CCCC1` (racemic), the Papp in [6] was 0.3 ×10⁻⁶ cm/s. Besides, the microsomal CLint at 10 µM in [1] was above 320 µL/min/mg. In data set [3], this compound gave a pIC50 below 5.00.

On to `CC(C)C(CNC(=O)C1(c2ccc(Cl)cc2)CCCC1)N1CCC(O)(C(F)(F)F)CC1` (racemic), for which the Papp in data set [6] is below 1 ×10⁻⁶ cm/s. In data set [1], the microsomal CLint at 10 µM is above 320 µL/min/mg. This compound also gave a pIC50 in [2] below 6.00.

As to `CC(C)(C(=O)NCC(Cc1ccccc1)N1CCC(O)(C(F)(F)F)CC1)C(F)(F)F` (racemic), the Papp in data set [6] was determined as 31 ×10⁻⁶ cm/s. Besides, in [1], the microsomal CLint at 10 µM is 284 µL/min/mg. Besides, the pIC50 in data set [2] is 7.04.

Take `CC(C)(C)c1ccc(CC(=O)NCC(Cc2ccccc2)N2CCC(O)(C(F)(F)F)CC2)cc1` (racemic): the microsomal CLint at 10 µM in data set [1] is above 320 µL/min/mg. In data set [3], this compound showed a pIC50 below 5.00.

In the case of `O=C(NCC(CC1CCOCC1)N1CCC(O)(C(F)(F)F)CC1)C1(c2ccc(Cl)cc2)CCCC1` (racemic), in data set [6], the Papp was determined as 3 ×10⁻⁶ cm/s. The microsomal CLint at 10 µM in data set [1] is above 320 µL/min/mg. For the same compound, in data set [2], the pIC50 is 5.72.

Turning to `O=C(NCC(Cc1ccccc1)N1CCC(O)(C(F)(F)F)CC1)C1(C(F)(F)F)CC1` (racemic), in data set [1], the microsomal CLint at 10 µM came to 149 µL/min/mg. Also, the pIC50 in [2] was 6.00.

Turning to `O=C(NCC(Cc1ccc(F)cc1)N1CCC(O)C1)C1(c2ccc(F)cc2)CCCC1` (racemic), the microsomal CLint at 10 µM in data set [1] came out at 170 µL/min/mg. Further, the pIC50 in data set [3] is below 5.00.

Turning to `O=C(NCC(Cc1ccccc1)N1CCC(C(F)(F)F)CC1)C1(c2ccc(F)cc2)CCCC1` (racemic), the Papp in [6] was found to be 6 ×10⁻⁶ cm/s. For the same compound, in [1], the microsomal CLint at 10 µM turned out to be 238 µL/min/mg. Besides, the pIC50 in data set [2] is 6.17.

Regarding `O=C(NCC(Cc1ccc(F)cc1)N1CCC2(CC1)COC2)C1(c2ccc(F)cc2)CCCC1` (racemic), the microsomal CLint at 10 µM in data set [1] is above 320 µL/min/mg. Further, in data set [3], the pIC50 is below 5.00.

Turning to `O=C(NCC(Cc1ccccc1)N1CCN(c2ccccn2)CC1)C1(c2ccc(Cl)cc2)CCCC1` (racemic), the Papp in data set [6] is below 1 ×10⁻⁶ cm/s. The microsomal CLint at 10 µM in data set [1] stood at 312 µL/min/mg. For the same compound, in [2], the pIC50 was below 6.00.

Consider `O=C(NCC(Cc1ccccc1)N1CCC(O)(C(F)(F)F)C1)C1(c2ccc(F)cc2)CCC1` (racemic), for which the pIC50 in [2] was 6.51.

On to `CN1CCN(C(CNC(=O)C2(c3ccc(Cl)cc3)CCCC2)Cc2ccccc2)CC1` (racemic), for which the Papp in [6] turned out to be 3 ×10⁻⁶ cm/s. In data set [1], the microsomal CLint at 10 µM is above 320 µL/min/mg. The compound also showed a pIC50 in [2] below 5.52.

Consider `O=C(NCC(c1ccccc1)N1CCC(O)(C(F)(F)F)CC1)C1(c2ccc(Cl)cc2)CC1` (racemic), for which the Papp in data set [6] came out at 4 ×10⁻⁶ cm/s. In addition, the microsomal CLint at 10 µM in [1] is above 320 µL/min/mg. The compound further showed a pIC50 in data set [2] below 5.52.

With `O=C(NCC(Cc1ccc(F)cc1)N1CCC(C(F)(F)F)C1)C1(c2ccc(F)cc2)CCCC1` (racemic), the pIC50 in [2] is 5.84.

(Values after ChEMBL document CHEMBL4190175 (Medchemcomm, 2016).)
